One series relates to humans. As to conditions: cited from earlier work.
The test system of a further series is subjects with high HS. As to the kind of experiment: Human study: supplementation of serine. It counts as in vivo. Here is the method: 86 subjects with varying degrees of […] were recruited for studying the response of liver to the HS. Also, liver tissue samples from 12 morbidly obese subjects that underwent bariatric surgery were collected. The mRNA expression of the identified target genes was measured in liver of obese and healthy subjects. In order to show the effect of the serine on the liver, another six subjects were recruited and the subjects' characteristics before and after serine supplementation are presented in Table 3. Subjects included in the studies met all the criteria for NAFLD including exclusion of other chronic liver diseases such as viral hepatitis, risky alcohol consumption, metabolic disorders (e.g., hemochromatosis).
Magnetic resonance experiments were performed using three 1.5 T clinical imagers (1× Sonata and 2× Avanto, Siemens, Erlangen, Germany). Liver fat content was determined using proton magnetic resonance spectroscopy and subcutaneous abdominal and visceral fat was measured by magnetic resonance imaging (Adiels et al, 2006; Lundbom et al, 2011).
[…]
To identify the unique contribution of serine supplementation in decreasing HS, the effect of short-term dietary supplementation with serine on HS and fasting levels of plasma markers of liver functions was assessed in six subjects with high HS. Each patient received one oral dose of ˜20 g of L-serine (200 mg/kg) per day for 14 days.

Setting [1] is: 200 mg/kg/day oral 14 days, six subjects.

This is an account of results in patent US11813236B2, “Substances for treatment of fatty liver-related conditions” (SCANDIBIO THERAPEUTICS AB, priority 2016, dated 2023).

The structures appear in SMILES notation.

Turning to `CC(=O)N[C@@H](CS)C(=O)O` [NAC, N-acetyl-L-cysteine, reference compound], the “Daily dosage shown to be safe in humans” value with humans (NAC) is 4-6 grams.

In the case of `N[C@@H](CO)C(=O)O` [serine, L-serine], in the series on subjects with high HS (setting [1]), the “Plasma level of ALP after supplementation (change in words)” value was “significantly decreased”, the “Plasma level of ALT after supplementation (change in words)” value is “significantly decreased” and the “Plasma level of AST after supplementation (change in words)” value is “significantly decreased”. The “Plasma ALT, response per subject” value in the series with subjects with high HS (200 mg/kg/day oral 14 days, six subjects, FIG. 5C panel H) is “consistently decreased in all six subjects”. Besides, the “Plasma AST, response per subject” value with subjects with high HS (200 mg/kg/day oral 14 days, six subjects, FIG. 5C panel I) is “consistently decreased in all six subjects”. Further, in the series with subjects with high HS (200 mg/kg/day oral 14 days, six subjects, FIG. 5C panel J), the “Plasma ALP, response per subject” value is “decreased in five of the participating subjects”. In addition, the “Plasma TGs, response per subject” value in the series on subjects with high HS (200 mg/kg/day oral 14 days, six subjects, FIG. 5C panel K, no change in the remaining one subject) is “decreased in five of the studied subjects”. The “Plasma level of serine after supplementation” value with subjects with high HS (200 mg/kg/day oral 14 days, six subjects, change in words) is “significantly increased”. Moreover, in the series with subjects with high HS (NAFLD patients, proof-of-concept human study), the “Markers of liver function after supplementation” value is given as “significantly improved”. Also, the “HDL cholesterol” value with subjects with high HS (after serine, n = 6, 200 mg/kg/day oral 14 days, mean ± SD, baseline 1.00 ± 0.21, P 0.30) is 1.02 ± 0.18 mmol/L. In addition, the HOMA-IR in the series on subjects with high HS (after serine, n = 6, 200 mg/kg/day oral 14 days, mean ± SD, baseline 2.15 ± 1.85, P 0.18) came to 1.54 ± 1.49. In addition, in the series with subjects with high HS (after serine, n = 6, 200 mg/kg/day oral 14 days, mean ± SD, baseline 3.68 ± 0.80, P 0.50), the “LDL cholesterol” value is given as 3.85 ± 0.94 mmol/L. Also, the “Total cholesterol” value in the series with subjects with high HS (after serine, n = 6, 200 mg/kg/day oral 14 days, mean ± SD, baseline 6.23 ± 1.49, P 0.18) is listed as 5.85 ± 1.15 mmol/L. In addition, the “Fasting plasma glucose” value with subjects with high HS (after serine, n = 6, 200 mg/kg/day oral 14 days, mean ± SD, baseline 6.57 ± 1.41, P 0.25) was 6.33 ± 1.41 mmol/L. Besides, in the series on subjects with high HS (after serine, n = 6, 200 mg/kg/day oral 14 days, mean ± SD, baseline 6.90 ± 6.65, P 0.13), the “Plasma triglycerides (TG)” value is recorded as 3.63 ± 1.81 mmol/L. Moreover, the “Bilirubin” value with subjects with high HS (after serine, n = 6, 200 mg/kg/day oral 14 days, mean ± SD, baseline 7.33 ± 4.11, P 0.13) amounted to 6.48 ± 3.94 µmol/L. Further, the “Fasting plasma insulin (FPI)” value in the series on subjects with high HS (after serine, n = 6, 200 mg/kg/day oral 14 days, mean ± SD, baseline 46.3 ± 33.8, P 0.23) was 34.7 ± 25.2 pmol/L. Besides, in the series on subjects with high HS (after serine, n = 6, 200 mg/kg/day oral 14 days, mean ± SD, baseline 63.8 ± 12.9, P 0.30), the “γ-Glutamyl transferase (μGT) (U/L)” value is recorded as 62.3 ± 16.3 U/L. For the same compound, the “Liver fat (%)” value with subjects with high HS (after serine, n = 6, L-serine 200 mg/kg oral once per day for 14 days, mean ± SD, baseline 26.8 ± 6.0, P<0.05) is 20.4 ± 7.0%. In addition, the “HS (hepatic steatosis) after serine supplementation (change in words)” value in the series on subjects with high HS (magnetic resonance spectroscopy before and after, 200 mg/kg/day oral 14 days) was “significantly decreased”. The “HS, response per patient” value with subjects with high HS (magnetic resonance spectroscopy, 200 mg/kg/day oral 14 days, six patients) was “decreased in all six patients”. For the same compound, the “Aspartate aminotransferase (AST) (U/L)” value with subjects with high HS (plasma, after serine, n = 6, 200 mg/kg/day oral 14 days, mean ± SD, baseline 34.5 ± 8.10, P<0.05) was found to be 27.4 ± 8.4 U/L. Moreover, the “Alanine aminotransferase (ALT) (U/L)” value in the series with subjects with high HS (plasma, after serine, n = 6, 200 mg/kg/day oral 14 days, mean ± SD, baseline 50.8 ± 15.2, P<0.05) worked out at 37.6 ± 5.3 U/L. Besides, the “Alkaline phosphatase (ALP) (U/L)” value in the series on subjects with high HS (plasma, after serine, n = 6, 200 mg/kg/day oral 14 days, mean ± SD, baseline 76.3 ± 17.2, P<0.05) was found to be 71.3 ± 17.9 U/L. Moreover, the “Relative decrease in HS” value in the series with subjects with high HS (range over the six NAFLD patients, 200 mg/kg/day oral 14 days) is given as 1.0-23%. For the same compound, the “Tolerability of the supplementation” value with subjects with high HS (~20 g L-serine (200 mg/kg) oral once per day for 14 days, six subjects) is “well tolerated by all the subjects”. The “Doses studied in humans and shown to be safe” value in the series with humans (serine, around 25-30 g/day) is on record as “up to 400 mg/kg/day”.
